Literature values in article PMC4139154 (Biochemistry, 2014).
pKd: −log10 of the molar value.

Columns and labels:
[1] = biological target: nNOS; details: read-out: Kd of imidazole for nNOS
[2] = biological target: eNOS; details: read-out: Kd of imidazole for eNOS
[3] = biological target: iNOS; details: read-out: Kd of imidazole for iNOS

pKd [1]: 3.80
pKd [2]: 3.82
pKd [3]: 4.38
Structure (SMILES): c1c[nH]cn1 [imidazole]
